Source: PubChem BioAssay (NCI)
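Cultured in 96-well plates, cells were exposed to test compound for 48 hours across five concentrations. Definition used: TGI = concentration required for complete inhibition of growth.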

Legend:
Assay in all cases: NCI-60 cell line screen, 48 h
MDA-N = test system: MDA-N
DU-145 prostate = test system: DU-145 prostate
BT-549 breast = test system: BT-549 breast
U251 CNS = test system: U251 CNS
EKVX NSCLC = test system: EKVX NSCLC
OVCAR-8 ovarian = test system: OVCAR-8 ovarian
OVCAR-3 ovarian = test system: OVCAR-3 ovarian
IGROV1 ovarian = test system: IGROV1 ovarian
PC-3 prostate = test system: PC-3 prostate
T-47D breast = test system: T-47D breast
HL-60(TB) leukemia = test system: HL-60(TB) leukemia
SF-295 CNS = test system: SF-295 CNS
HOP-92 NSCLC = test system: HOP-92 NSCLC
SF-268 CNS = test system: SF-268 CNS

| SMILES | TGI (MDA-N) [µM] | TGI (DU-145 prostate) [µM] | TGI (BT-549 breast) [µM] | TGI (U251 CNS) [µM] | TGI (EKVX NSCLC) [µM] | TGI (OVCAR-8 ovarian) [µM] | TGI (OVCAR-3 ovarian) [µM] | TGI (IGROV1 ovarian) [µM] | TGI (PC-3 prostate) [µM] | TGI (T-47D breast) [µM] | TGI (HL-60(TB) leukemia) [µM] | TGI (SF-295 CNS) [µM] | TGI (HOP-92 NSCLC) [µM] | TGI (SF-268 CNS) [µM] |
| --- | --- | --- | --- | --- | --- | --- | --- | --- | --- | --- | --- | --- | --- | --- |
| Cc1ccsc1/C=N/Nc1ccc2ccccc2n1 | > 100 | > 100 | > 100 | > 100 | > 100 | > 100 | > 100 | 79.3 | > 100 | > 100 | 40.1 | 31 | 82 | > 100 |
| O=C(c1cc(Cl)cc(Cl)c1)N1CCN(C(=O)c2cc(Cl)cc(Cl)c2)C1=S | 34.5 | 21.5 | 70.8 | 26.4 | 31.9 | 44.5 | 26.9 | 32.8 | 30.3 | 45.2 | 6.28 | 44.7 | 22.4 | 37.6 |
| COc1ccc(OC)c(C2Cc3cnc4nc(N)nc(N)c4c3C2)c1 (stereo not given) | 83.7 | 55.7 | 52.6 | 47.3 | > 100 | 96.9 | 41.6 | 50.2 | 69.7 | 65.5 | 40 | 93.7 | 53.8 | > 100 |
| CC12CC(C#N)(C#N)C(C#N)(CO1)C(=N)O2 (stereo not given) | > 100 | > 100 | > 100 | > 100 | > 100 | > 100 | > 100 | > 100 | > 100 | > 100 | > 100 | > 100 | > 100 | > 100 |
| Cc1cc(C)nc(NS(=O)(=O)c2ccc(NNC(=O)c3cccc4c(=O)c5ccccc5[nH]c34)cc2)n1 | > 100 | > 100 | > 100 | > 100 | 98.9 | > 100 | > 100 | > 100 | > 100 | > 100 | > 100 | > 100 | 73.8 | > 100 |
| CC(C)C[C@H]1[C@@H](OCc2ccccc2)COS(=O)N1[C@H](C)c1ccccc1 (stereo not given in full) | > 100 | > 100 | > 100 | 36.5 | > 100 | > 100 | 26 | > 100 | > 100 | > 100 | 51.7 | 34.3 | > 100 | > 100 |
| O=S(=O)(O)c1ccc(N=Nc2ccc(N=Nc3c(O)ccc4ccccc34)cc2)cc1 | > 100 | > 100 | > 100 | > 100 | > 100 | > 100 | > 100 | > 100 | > 100 | > 100 | > 100 | > 100 | > 100 | > 100 |
| CC(NNC(=O)CC(=O)N(C(=O)c1ccccc1)c1ccc(Cl)cc1)c1cc2ccccc2oc1=O (stereo not given) | > 10 | > 10 | > 10 | > 10 | > 10 | > 10 | > 10 | > 10 | > 10 | > 10 | > 10 | > 10 | > 10 | > 10 |
| C[C@H]1C2Cc3cc(N)ccc3[C@@]1(C)CCN2CCc1ccccc1 | > 100 | > 100 | > 100 | > 100 | > 100 | > 100 | 92.6 | > 100 | 49.9 | > 100 | 87.7 | 98.8 | 90.9 | > 100 |
| NC12Oc3cc(O)cc(O)c3C1(c1ccc(Cl)cc1)c1c(O)cc(O)cc1O2 (stereo not given) | > 100 | > 100 | > 100 | > 100 | > 100 | > 100 | > 100 | > 100 | > 100 | > 100 | > 100 | > 100 | > 100 | > 100 |
